Patent publication US20110195924A1, “Methods of Inhibiting the Interaction Between S100P and the Receptor for Advanced Glycation End-Products” (priority 2008, published 2011)
“Also recorded” adds a separate entry of the source.

How the values were obtained:
pancreatic cancer cells = experiment: Apoptosis of pancreatic cancer cells with cromolyn analogs and cytotoxic drugs; assay type: cell-based
Method: (§1) Various cromolyn-based analogs were developed. The effects of the analogs on binding of S100P with RAGE were evaluated for the analogs using a sandwich ELISA. The effectiveness of the analogs to block cancer cell proliferatin and increase apoptosis in vitro were analyzed with and without cisplatin, 5-flurouracil and gemcitabine by MTS and FACS analysis. We also examined the ability of the analogs to inhibit S100P activation of NFkB signaling in cancer cells in vitro and in vivo. Finally, the effects of the novel analogs on tumor growth in vivo was evaluated. One analog, C5OH is shown below:
In this in vitro study, pancreatic cancer cells were treated with gemcitabine alone or in the presence of cromolyn analogs. The cromolyn analogs themselves have very little effect on the rates of cellular apoptosis, supporting their absence of general toxicity. However, all cromolyn analogs increased the killing of pancreatic cancer cells by gemcitabine.

BxPC-3 cells = experiment: BxPC-3 cell viability, alone or with gemcitabine; assay type: cell-based; settings: 72 hours
Method: BxPC-3 cells were plated at 1.0×10^3 cells/well and treated with 0 μM, 1 μM, 10 μM, and 100 μM of cromolyn or C5 alone or in combination with gemcitabine 1 μM and cell viability was analyzed after 72 hours. Two-tailed two-sample (unpaired) Student's t-tests were used to determine P values. […] BxPC-3 cells were plated at 1.0×10^3 cells/well and treated with either 100 μM of cromolyn or 1 μM C5 alone or in combination with gemcitabine (1 μM) and cell viability was analyzed after 72 hours.

MPanc-96 cells = experiment: MPanc-96 cell apoptosis by flow cytometry, alone or with gemcitabine; assay type: cell-based, Human; settings: 100 and 1000 nM, 72 hours
Method: FIG. 11 compares the effects of cromolyn and C5 alone and in combination with gemcitabine on MPanc-96 cell apoptosis. MPanc-96 cells were treated with cromolyn or C5 (100 and 1000 nM) with (+) or without (−) gemcitabine (10 μM). Apoptosis was analyzed after 72 hours by flow cytometry.

NFκB activity = experiment: S100P stimulated NFκB luciferase reporter in MPanc-96 cells; assay type: cell-based, Human; settings: S100P 100 nM, 5 hours
Method: MPanc-96 pancreatic cancer cell lines stably expressing an NFκB luciferase reporter were examined for the effects of S100P, cromolyn and C5. Cells were plated at 5.0×10^3 cells/well, treated for 5 hours with 100 nM of S100P, with or without cromolyn and C5 (1 μM), and activity of a luciferase gene driven by the NFkB promoter was analyzed. P=0.05 C5 versus cromolyn. Two-tailed two-sample (unpaired) Student's t-tests were used to determine P values.

MPanc96 tumors = experiment: MPanc96 pancreatic tumor growth and survival in mice (analogs); assay type: in vivo; settings: mouse, in vivo
Method: as §1
Animals were implanted with MPanc96 cells, a gemcitabine resistant model of pancreatic cancer, and then treated with gemcitabine, C5OH, or the combination. […] Noteworthy, the addition of the hydroxyl group to the carbon chain in C5 allows easy modifications of this molecule. The hydroxyl can be substituted with fluoride that can be labeled for in vivo PET imaging. This hydroxyl can also be used to develop a pro-drug form of C5 by attaching other components with an ester bond.

S100P binding with RAGE = molecular target: T1, S100P binding with RAGE (Homo sapiens, UniProt P25815); experiment: ELISA of S100P binding to RAGE (sRAGE coated plate)
T1 construct: full-length human S100P cDNA (NM_005980) was cloned into the pTrcHis2 vector; His; made in house; host or cells: bacteria (S100P)
T1 sequence (P25815 1-95): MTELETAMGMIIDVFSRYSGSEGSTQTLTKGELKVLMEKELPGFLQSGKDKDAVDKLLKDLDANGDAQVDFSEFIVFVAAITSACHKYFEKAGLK
Method: After removing un-bound S100P by washing with detergent, the bound S100P and RAGE complex was quantified by adding HRP labeled antibody against S100P. *, P=0.04 C5 1 μM versus cromolyn 5 μM. Two-tailed two-sample (unpaired) Student's t-tests were used to determine P values.
The plate was washed and the amount of bound S100P was quantitated using anti-S100P antibody.
The binding of S100P to RAGE was determined using an ELISA assay. sRAGE was attached to the dish and recombinant S100P (50 ng) was added with or without the indicated concentrations of cromolyn analogs. The plate was washed and the amount of bound S100P was quantitated using anti-S100P antibody.

S100B with RAGE = molecular target: T2, S100B with RAGE (Homo sapiens, UniProt P04271); experiment: ELISA of S100B binding to RAGE (sRAGE coated plate)
T2 sequence (P04271 1-92): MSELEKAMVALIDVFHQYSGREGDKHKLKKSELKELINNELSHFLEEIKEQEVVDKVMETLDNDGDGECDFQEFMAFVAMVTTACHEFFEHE
Description: After removing un-bound S100B by washing with detergent, bound S100B and RAGE complex was quantified by adding HRP labeled antibody against S100B.

NFkB activity = experiment: S100P induced NFkB activity in cancer cells (analogs); assay type: cell-based
Method: as §1, with “evaluated.” for “evaluated. One analog, C5OH is shown below:”

Structure (SMILES): O=C([O-])c1cc(=O)c2c(OCCCCCOc3cccc4oc(C(=O)[O-])cc(=O)c34)cccc2o1.[Na+].[Na+] [C5, disodium 1,5-bis(2-carboxychromon-5-yloxy)pentane]
- cancer cell apoptosis in response to various cytoxic treatments, relative to cromolyn (pancreatic cancer cells): at lesser concentrations and to a greater extent than did cromolyn
- killing of pancreatic cancer cells by gemcitabine (pancreatic cancer cells; with gemcitabine, C5 and C5OH at 10-fold lower concentration than cromolyn): worked equally well
- inhibiting cell viability in combination with gemcitabine, relative to cromolyn (BxPC-3 cells; BxPC-3, 1-100 μM with gemcitabine 1 μM): more potent and efficacious
- blocking cell growth alone, relative to cromolyn (BxPC-3 cells; BxPC-3, 10 or 100 μM): more potent and more efficacious than cromolyn
- concentration giving the same level of cell reduction in combination with gemcitabine (BxPC-3 cells; BxPC-3, gemcitabine 1 μM, FIG. 10): 1 µM
- BxPC-3 cell viability (BxPC-3 cells; alone and in conjunction with gemcitabine 1 μM): inhibit
- apoptosis in combination with gemcitabine, relative to cromolyn with gemcitabine (MPanc-96 cells; MPanc-96, gemcitabine 10 μM): induced more apoptosis than cromolyn
- MPanc-96 cell viability (MPanc-96 cells; alone and in conjunction with gemcitabine 10 μM): inhibit
- reduction of S100P induced NFκB activity relative to cromolyn at the same dose (NFκB activity; 1 μM): much better than cromolyn
- NFκB activity in pancreatic cancer cells in vitro (NFκB activity; compound 1 μM): inhibit
- inhibition of tumor growth and survival in vivo, relative to cromolyn (MPanc96 tumors): superior to cromolyn
- blocking of the interaction / binding of S100P with RAGE (S100P binding with RAGE): blocked
- concentration achieving the same level of S100P inhibition (S100P binding with RAGE; FIG. 7): 100 nM
- potency in blocking S100P binding to RAGE relative to cromolyn or C5 (S100P binding with RAGE; analogs at 10-fold lower concentration than cromolyn): nearly equally potent and more efficient than cromolyn; also recorded: better than cromolyn
- interaction of S100B with RAGE (S100B with RAGE): inhibit
- inhibition of S100P induced NFkB activity relative to cromolyn (NFkB activity): more potently and effectively than did cromolyn
